According to US9611249B2, “1H-indazole-3-carboxamide compounds as glycogen synthase kinase 3 beta inhibitors” (AZIENDE CHIMICHE RIUNITE ANGELINI FRANCESCO A.C.R.A.F. …, priority 2012, dated 2017):

Assays:
[1] = molecular target: c-Met kinase (h) (Homo sapiens (Human), UniProt P08581); assay: Kinase selectivity panel: c-Met kinase (h); type: biochemical; settings: 10 μM in duplicate, read-out: % inhibition of control values
Procedure: (§1) (a) Compounds 1 and 2 were tested against a panel of 60 kinases in order to assess their selectivity. The assays were chosen taking into consideration the diversity of assay families.
(§2) Tested kinases were representative of following kinase sub-families: • protein-serine/threonine kinases; • protein-tyrosine kinases; • other kinases; and • atypical kinases.
(§3) Human recombinant kinases were incubated in the presence of specific peptide substrates plus ATP for different times (10, 15, 30, 60 or 90 minutes) at 22° C. Phosphorylated substrate was detected by LANCE or HTRF technology (CISBIO, MA, USA). The compounds were tested at 10 μM in duplicate.
(§4) The results are expressed as a percentage of inhibition of control specific activity obtained in the presence of the test compounds and are reported in the following Table 5.
(§5) (b) Compounds 3, 8, 29 and 31 were tested against the same panel of 60 kinases under the same conditions described above for compounds 1 and 2.
(§6) The results are expressed as a percent of inhibition of control specific activity obtained in the presence of the test compounds and are reported in the following Table 6.

[2] = molecular target: EphA4 kinase (h) (Homo sapiens (Human), UniProt P54764); assay: Kinase selectivity panel: EphA4 kinase (h); type: biochemical; settings: 10 μM in duplicate, read-out: % inhibition of control values
Procedure: as §1, §2, §3, §4, §5, §6

[3] = molecular target: EphB2 kinase (h) (Homo sapiens (Human), UniProt P29323); assay: Kinase selectivity panel: EphB2 kinase (h); type: biochemical; settings: 10 μM in duplicate, read-out: % inhibition of control values
Procedure: as §1, §2, §3, §4, §5, §6

[4] = molecular target: FGFR1 kinase (h) (Homo sapiens (Human), UniProt P11362); assay: Kinase selectivity panel: FGFR1 kinase (h); type: biochemical; settings: 10 μM in duplicate, read-out: % inhibition of control values
Procedure: as §1, §2, §3, §4, §5, §6

[5] = molecular target: IGF1R kinase (h) (Homo sapiens (Human), UniProt P08069); assay: Kinase selectivity panel: IGF1R kinase (h); type: biochemical; settings: 10 μM in duplicate, read-out: % inhibition of control values
Procedure: as §1, §2, §3, §4, §5, §6

[6] = molecular target: IRK (h) (InsR) (Homo sapiens (Human), UniProt P06213); assay: Kinase selectivity panel: IRK (h) (InsR); type: biochemical; settings: 10 μM in duplicate, read-out: % inhibition of control values
Procedure: as §1, §2, §3, §4, §5, §6

[7] = molecular target: Ret kinase (h) (Homo sapiens (Human), UniProt P07949); assay: Kinase selectivity panel: Ret kinase (h); type: biochemical; settings: 10 μM in duplicate, read-out: % inhibition of control values
Procedure: as §1, §2, §3, §4, §5, §6

[8] = molecular target: TRKA (h) (Homo sapiens (Human), UniProt P04629); assay: Kinase selectivity panel: TRKA (h); type: biochemical; settings: 10 μM in duplicate, read-out: % inhibition of control values
Procedure: as §1, §2, §3, §4, §5, §6

[9] = molecular target: Abl kinase (h) (Homo sapiens (Human), UniProt P00519); assay: Kinase selectivity panel: Abl kinase (h); type: biochemical; settings: 10 μM in duplicate, read-out: % inhibition of control values
Procedure: as §1, §2, §3, §4, §5, §6

[10] = molecular target: JAK1 (h) (Homo sapiens (Human), UniProt P23458); assay: Kinase selectivity panel: JAK1 (h); type: biochemical; settings: 10 μM in duplicate, read-out: % inhibition of control values
Procedure: as §1, §2, §3, §4, §5, §6

[11] = molecular target: JAK2 (h) (Homo sapiens (Human), UniProt O60674); assay: Kinase selectivity panel: JAK2 (h); type: biochemical; settings: 10 μM in duplicate, read-out: % inhibition of control values
Procedure: as §1, §2, §3, §4, §5, §6

[12] = molecular target: Fyn kinase (h) (Homo sapiens (Human), UniProt P06241); assay: Kinase selectivity panel: Fyn kinase (h); type: biochemical; settings: 10 μM in duplicate, read-out: % inhibition of control values
Procedure: as §1, §2, §3, §4, §5, §6

[13] = molecular target: PCTAIRE1 kinase (h) (Homo sapiens (Human), UniProt Q00536); assay: Kinase selectivity panel: PCTAIRE1 kinase (h); type: biochemical; settings: 10 μM in duplicate, read-out: % inhibition of control values
Procedure: as §1, §2, §3, §4, §5, §6

[14] = molecular target: CDC2/CDK1 (h) (cycB) (Homo sapiens (Human), UniProt P06493); assay: Kinase selectivity panel: CDC2/CDK1 (h) (cycB); type: biochemical; settings: 10 μM in duplicate, read-out: % inhibition of control values
Procedure: as §1, §2, §3, §4, §5, §6

[15] = molecular target: CDK2 (h) (cycA) (Homo sapiens (Human), UniProt P24941); assay: Kinase selectivity panel: CDK2 (h) (cycA); type: biochemical; settings: 10 μM in duplicate, read-out: % inhibition of control values
Procedure: as §1, §2, §3, §4, §5, §6

[16] = molecular target: CDK5/p35 (h) (Homo sapiens (Human), UniProt Q00535); assay: Kinase selectivity panel: CDK5/p35 (h); type: biochemical; settings: 10 μM in duplicate, read-out: % inhibition of control values
Procedure: as §1, §2, §3, §4, §5, §6

[17] = molecular target: p38alpha kinase (h) (Homo sapiens (Human), UniProt Q16539); assay: Kinase selectivity panel: p38alpha kinase (h); type: biochemical; settings: 10 μM in duplicate, read-out: % inhibition of control values
Procedure: as §1, §2, §3, §4, §5, §6

[18] = system: AMPKalpha; assay: Kinase selectivity panel: AMPKalpha; type: biochemical, human; settings: 10 μM in duplicate
Procedure: as §1, §2, §3, §4, §5, §6

[19] = molecular target: CaMK4 (h) (Homo sapiens (Human), UniProt Q16566); assay: Kinase selectivity panel: CaMK4 (h); type: biochemical; settings: 10 μM in duplicate, read-out: % inhibition of control values
Procedure: as §1, §2, §3, §4, §5, §6

[20] = molecular target: Pim2 kinase (h) (Homo sapiens (Human), UniProt Q9P1W9); assay: Kinase selectivity panel: Pim2 kinase (h); type: biochemical; settings: 10 μM in duplicate, read-out: % inhibition of control values
Procedure: as §1, §2, §3, §4, §5, §6

[21] = molecular target: MNK2 (h) (Homo sapiens (Human), UniProt Q9HBH9); assay: Kinase selectivity panel: MNK2 (h); type: biochemical; settings: 10 μM in duplicate, read-out: % inhibition of control values
Procedure: as §1, §2, §3, §4, §5, §6

[22] = molecular target: Akt1/PKBalpha (h) (Homo sapiens (Human), UniProt P31749); assay: Kinase selectivity panel: Akt1/PKBalpha (h); type: biochemical; settings: 10 μM in duplicate, read-out: % inhibition of control values
Procedure: as §1, §2, §3, §4, §5, §6

[23] = molecular target: PDK1 (h) (Homo sapiens (Human), UniProt O15530); assay: Kinase selectivity panel: PDK1 (h); type: biochemical; settings: 10 μM in duplicate, read-out: % inhibition of control values
Procedure: as §1, §2, §3, §4, §5, §6

[24] = molecular target: RSK2 (h) (Homo sapiens (Human), UniProt P51812); assay: Kinase selectivity panel: RSK2 (h); type: biochemical; settings: 10 μM in duplicate, read-out: % inhibition of control values
Procedure: as §1, §2, §3, §4, §5, §6

[25] = molecular target: PKCalpha (h) (Homo sapiens (Human), UniProt P17252); assay: Kinase selectivity panel: PKCalpha (h); type: biochemical; settings: 10 μM in duplicate, read-out: % inhibition of control values
Procedure: as §1, §2, §3, §4, §5, §6

[26] = molecular target: PKCbeta 1 (h) (Homo sapiens (Human), UniProt P05771); assay: Kinase selectivity panel: PKCbeta 1 (h); type: biochemical; settings: 10 μM in duplicate, read-out: % inhibition of control values
Procedure: as §1, §2, §3, §4, §5, §6

[27] = molecular target: CK1alpha (h) (Homo sapiens (Human), UniProt P48729); assay: Kinase selectivity panel: CK1alpha (h); type: biochemical; settings: 10 μM in duplicate, read-out: % inhibition of control values
Procedure: as §1, §2, §3, §4, §5, §6

[28] = molecular target: PAK1 (h) (Homo sapiens (Human), UniProt Q13153); assay: Kinase selectivity panel: PAK1 (h); type: biochemical; settings: 10 μM in duplicate, read-out: % inhibition of control values
Procedure: as §1, §2, §3, §4, §5, §6

[29] = molecular target: HGK (h) (MAP4K4) (Homo sapiens (Human), UniProt O95819); assay: Kinase selectivity panel: HGK (h) (MAP4K4); type: biochemical; settings: 10 μM in duplicate, read-out: % inhibition of control values
Procedure: as §1, §2, §3, §4, §5, §6

[30] = molecular target: TAOK2 (TAO1) (h) (Homo sapiens (Human), UniProt Q9UL54); assay: Kinase selectivity panel: TAOK2 (TAO1) (h); type: biochemical; settings: 10 μM in duplicate, read-out: % inhibition of control values
Procedure: as §1, §2, §3, §4, §5, §6

[31] = molecular target: DLK1 (h) (MAP3K12) (Homo sapiens (Human), UniProt Q12852); assay: Kinase selectivity panel: DLK1 (h) (MAP3K12); type: biochemical; settings: 10 μM in duplicate, read-out: % inhibition of control values
Procedure: as §1, §2, §3, §4, §5, §6

[32] = molecular target: IKKepsilon (h) (IKBKE) (Homo sapiens (Human), UniProt Q14164); assay: Kinase selectivity panel: IKKepsilon (h) (IKBKE); type: biochemical; settings: 10 μM in duplicate, read-out: % inhibition of control values
Procedure: as §1, §2, §3, §4, §5, §6

[33] = molecular target: MYT1 kinase (h) (Homo sapiens (Human), UniProt Q99640); assay: Kinase selectivity panel: MYT1 kinase (h); type: biochemical; settings: 10 μM in duplicate, read-out: % inhibition of control values
Procedure: as §1, §2, §3, §4, §5, §6

[34] = molecular target: AurB/Aur1 kinase (h) (Homo sapiens (Human), UniProt Q96GD4); assay: Kinase selectivity panel: AurB/Aur1 kinase (h); type: biochemical; settings: 10 μM in duplicate, read-out: % inhibition of control values
Procedure: as §1, §2, §3, §4, §5, §6

Chain of EphB2 kinase (h) (P29323 19-1055): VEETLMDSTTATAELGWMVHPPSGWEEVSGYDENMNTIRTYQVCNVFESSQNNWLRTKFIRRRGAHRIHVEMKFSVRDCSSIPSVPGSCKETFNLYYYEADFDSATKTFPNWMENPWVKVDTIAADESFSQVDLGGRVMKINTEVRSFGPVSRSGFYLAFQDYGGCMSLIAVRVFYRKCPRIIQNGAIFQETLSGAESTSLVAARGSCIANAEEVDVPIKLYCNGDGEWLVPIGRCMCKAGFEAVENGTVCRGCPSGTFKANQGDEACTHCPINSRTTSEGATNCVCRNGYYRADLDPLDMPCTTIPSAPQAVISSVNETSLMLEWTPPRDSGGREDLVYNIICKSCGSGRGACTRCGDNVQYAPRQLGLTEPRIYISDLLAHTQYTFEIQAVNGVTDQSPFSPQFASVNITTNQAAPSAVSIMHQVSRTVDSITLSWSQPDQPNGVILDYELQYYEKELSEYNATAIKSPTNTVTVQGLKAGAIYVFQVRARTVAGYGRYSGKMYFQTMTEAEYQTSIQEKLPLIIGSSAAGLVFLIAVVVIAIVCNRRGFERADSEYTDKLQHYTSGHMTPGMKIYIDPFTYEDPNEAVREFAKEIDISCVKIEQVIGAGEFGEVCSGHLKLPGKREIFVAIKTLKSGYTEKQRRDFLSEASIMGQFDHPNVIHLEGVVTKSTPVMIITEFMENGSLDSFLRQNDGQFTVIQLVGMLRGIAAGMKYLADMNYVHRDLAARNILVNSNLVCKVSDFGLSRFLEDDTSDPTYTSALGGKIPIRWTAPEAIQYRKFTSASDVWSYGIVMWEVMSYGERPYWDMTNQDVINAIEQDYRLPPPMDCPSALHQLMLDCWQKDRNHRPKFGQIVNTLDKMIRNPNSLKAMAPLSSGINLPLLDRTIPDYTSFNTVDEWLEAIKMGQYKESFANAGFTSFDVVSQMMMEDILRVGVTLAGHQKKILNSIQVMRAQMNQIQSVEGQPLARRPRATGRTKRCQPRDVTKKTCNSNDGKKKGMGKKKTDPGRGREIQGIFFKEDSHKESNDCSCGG
Chain of JAK1 (h) (P23458 whole entry): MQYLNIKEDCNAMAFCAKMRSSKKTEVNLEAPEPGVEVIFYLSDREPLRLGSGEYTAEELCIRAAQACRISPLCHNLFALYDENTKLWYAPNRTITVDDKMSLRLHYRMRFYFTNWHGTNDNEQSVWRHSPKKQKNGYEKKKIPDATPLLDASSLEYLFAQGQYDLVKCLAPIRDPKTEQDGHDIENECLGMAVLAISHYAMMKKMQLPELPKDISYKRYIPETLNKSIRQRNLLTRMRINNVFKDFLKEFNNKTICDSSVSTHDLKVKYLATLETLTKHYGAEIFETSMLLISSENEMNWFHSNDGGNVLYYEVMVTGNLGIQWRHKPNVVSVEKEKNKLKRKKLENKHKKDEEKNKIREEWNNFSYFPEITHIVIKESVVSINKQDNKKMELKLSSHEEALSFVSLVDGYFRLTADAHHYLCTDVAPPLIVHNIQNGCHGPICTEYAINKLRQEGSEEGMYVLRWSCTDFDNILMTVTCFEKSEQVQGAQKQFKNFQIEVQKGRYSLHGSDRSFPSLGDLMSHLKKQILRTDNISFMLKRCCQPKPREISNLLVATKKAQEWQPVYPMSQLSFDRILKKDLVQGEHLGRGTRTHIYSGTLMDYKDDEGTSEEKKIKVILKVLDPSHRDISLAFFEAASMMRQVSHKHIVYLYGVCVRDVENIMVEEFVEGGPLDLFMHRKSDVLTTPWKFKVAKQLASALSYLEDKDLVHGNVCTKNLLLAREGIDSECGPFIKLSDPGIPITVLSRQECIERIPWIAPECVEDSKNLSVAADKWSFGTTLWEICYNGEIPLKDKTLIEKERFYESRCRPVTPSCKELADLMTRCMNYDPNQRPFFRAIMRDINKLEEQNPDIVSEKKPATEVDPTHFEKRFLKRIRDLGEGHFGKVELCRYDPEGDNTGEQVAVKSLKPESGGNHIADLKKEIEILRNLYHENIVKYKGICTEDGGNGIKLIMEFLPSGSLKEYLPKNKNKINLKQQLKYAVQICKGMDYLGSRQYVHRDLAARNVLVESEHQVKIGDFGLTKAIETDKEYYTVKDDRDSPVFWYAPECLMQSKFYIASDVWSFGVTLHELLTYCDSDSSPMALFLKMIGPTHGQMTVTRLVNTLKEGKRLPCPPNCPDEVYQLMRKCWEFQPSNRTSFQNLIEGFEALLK
Chain of MNK2 (h) (Q9HBH9 whole entry): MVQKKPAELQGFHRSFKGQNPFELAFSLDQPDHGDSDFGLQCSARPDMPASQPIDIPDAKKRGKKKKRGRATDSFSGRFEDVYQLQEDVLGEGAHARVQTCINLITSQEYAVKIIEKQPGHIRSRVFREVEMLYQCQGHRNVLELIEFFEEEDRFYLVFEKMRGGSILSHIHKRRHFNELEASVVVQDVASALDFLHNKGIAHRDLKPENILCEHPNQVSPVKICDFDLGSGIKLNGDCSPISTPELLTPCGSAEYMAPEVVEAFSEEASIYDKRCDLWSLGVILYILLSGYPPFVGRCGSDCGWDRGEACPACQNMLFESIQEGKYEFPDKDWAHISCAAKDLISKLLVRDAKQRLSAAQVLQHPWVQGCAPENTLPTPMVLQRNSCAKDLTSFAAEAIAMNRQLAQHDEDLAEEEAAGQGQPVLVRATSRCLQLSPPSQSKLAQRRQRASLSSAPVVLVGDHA
Chain of PKCbeta 1 (h) (P05771 whole entry): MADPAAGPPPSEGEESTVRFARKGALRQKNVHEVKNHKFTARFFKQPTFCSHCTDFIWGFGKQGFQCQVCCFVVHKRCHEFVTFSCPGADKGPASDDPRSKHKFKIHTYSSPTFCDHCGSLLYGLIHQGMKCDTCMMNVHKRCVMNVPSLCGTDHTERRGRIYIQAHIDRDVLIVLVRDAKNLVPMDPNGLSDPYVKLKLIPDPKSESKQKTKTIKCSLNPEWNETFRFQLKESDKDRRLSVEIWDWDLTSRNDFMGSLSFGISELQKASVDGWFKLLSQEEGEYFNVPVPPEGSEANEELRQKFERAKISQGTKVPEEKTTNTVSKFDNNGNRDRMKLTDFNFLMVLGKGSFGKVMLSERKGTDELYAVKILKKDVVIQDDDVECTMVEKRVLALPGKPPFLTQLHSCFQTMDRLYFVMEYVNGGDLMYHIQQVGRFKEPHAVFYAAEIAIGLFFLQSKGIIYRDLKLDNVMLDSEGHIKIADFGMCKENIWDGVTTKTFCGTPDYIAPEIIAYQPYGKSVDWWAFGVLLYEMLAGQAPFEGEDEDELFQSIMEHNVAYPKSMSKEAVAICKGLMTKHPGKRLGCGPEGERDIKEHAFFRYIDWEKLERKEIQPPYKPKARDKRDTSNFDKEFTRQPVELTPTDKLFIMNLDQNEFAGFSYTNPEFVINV
Chain of PDK1 (h) (O15530 whole entry): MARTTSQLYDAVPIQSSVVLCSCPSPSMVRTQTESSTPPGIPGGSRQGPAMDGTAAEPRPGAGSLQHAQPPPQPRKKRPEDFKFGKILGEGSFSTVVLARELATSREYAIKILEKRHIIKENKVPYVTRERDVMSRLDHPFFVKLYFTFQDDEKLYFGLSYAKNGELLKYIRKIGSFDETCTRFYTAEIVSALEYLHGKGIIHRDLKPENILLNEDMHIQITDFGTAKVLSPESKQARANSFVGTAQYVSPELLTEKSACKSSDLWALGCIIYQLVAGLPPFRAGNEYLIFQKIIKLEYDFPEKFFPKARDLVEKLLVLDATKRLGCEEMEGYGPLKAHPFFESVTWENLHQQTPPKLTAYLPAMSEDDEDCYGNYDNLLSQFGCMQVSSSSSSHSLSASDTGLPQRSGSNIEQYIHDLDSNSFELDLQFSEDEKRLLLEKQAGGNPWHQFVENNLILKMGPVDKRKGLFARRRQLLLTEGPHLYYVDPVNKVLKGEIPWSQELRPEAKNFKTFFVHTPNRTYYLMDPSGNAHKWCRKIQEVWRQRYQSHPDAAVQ
Chain of CDC2/CDK1 (h) (cycB) (P06493 whole entry): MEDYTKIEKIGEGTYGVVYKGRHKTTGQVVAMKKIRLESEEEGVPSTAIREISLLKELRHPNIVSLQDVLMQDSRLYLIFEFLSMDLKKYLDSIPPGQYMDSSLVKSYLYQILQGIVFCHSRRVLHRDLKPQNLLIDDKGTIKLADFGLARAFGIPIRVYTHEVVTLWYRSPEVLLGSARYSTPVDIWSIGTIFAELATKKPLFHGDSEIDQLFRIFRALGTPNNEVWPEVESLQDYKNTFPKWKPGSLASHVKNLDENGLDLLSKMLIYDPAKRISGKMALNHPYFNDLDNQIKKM
Chain of CDC2/CDK1 (h) (cycB) (P14635 whole entry partner): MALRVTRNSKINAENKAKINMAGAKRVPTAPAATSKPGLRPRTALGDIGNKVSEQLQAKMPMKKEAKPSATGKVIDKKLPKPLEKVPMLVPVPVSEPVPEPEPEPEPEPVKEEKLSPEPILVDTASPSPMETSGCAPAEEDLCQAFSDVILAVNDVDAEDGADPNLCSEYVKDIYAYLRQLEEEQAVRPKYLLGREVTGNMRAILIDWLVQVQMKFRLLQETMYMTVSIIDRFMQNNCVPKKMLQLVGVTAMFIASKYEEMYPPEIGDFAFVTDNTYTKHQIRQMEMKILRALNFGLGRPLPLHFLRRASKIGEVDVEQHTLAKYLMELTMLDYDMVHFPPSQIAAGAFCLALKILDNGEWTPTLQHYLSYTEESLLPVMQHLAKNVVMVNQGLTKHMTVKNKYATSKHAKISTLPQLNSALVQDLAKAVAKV
Chain of CK1alpha (h) (P48729 whole entry): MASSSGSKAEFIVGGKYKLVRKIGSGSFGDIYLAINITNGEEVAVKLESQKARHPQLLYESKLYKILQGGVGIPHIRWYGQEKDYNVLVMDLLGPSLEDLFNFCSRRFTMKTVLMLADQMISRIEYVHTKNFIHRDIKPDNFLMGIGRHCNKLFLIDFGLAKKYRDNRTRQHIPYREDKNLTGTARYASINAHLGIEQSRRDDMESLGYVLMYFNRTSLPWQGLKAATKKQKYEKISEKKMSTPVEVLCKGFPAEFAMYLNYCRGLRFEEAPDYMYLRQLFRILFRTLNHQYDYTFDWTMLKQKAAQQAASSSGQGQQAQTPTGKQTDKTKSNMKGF

| inhibition at 10 µM [1] [%] | inhibition at 10 µM [2] [%] | inhibition at 10 µM [3] [%] | inhibition at 10 µM [4] [%] | inhibition at 10 µM [5] [%] | inhibition at 10 µM [6] [%] | inhibition at 10 µM [7] [%] | inhibition at 10 µM [8] [%] | inhibition at 10 µM [9] [%] | inhibition at 10 µM [10] [%] | inhibition at 10 µM [11] [%] | inhibition at 10 µM [12] [%] | inhibition at 10 µM [13] [%] | inhibition at 10 µM [14] [%] | inhibition at 10 µM [15] [%] | inhibition at 10 µM [16] [%] | inhibition at 10 µM [17] [%] | % inhibition of control values [18] [%] | inhibition at 10 µM [19] [%] | inhibition at 10 µM [20] [%] | Structure (SMILES) | further results |
| --- | --- | --- | --- | --- | --- | --- | --- | --- | --- | --- | --- | --- | --- | --- | --- | --- | --- | --- | --- | --- | --- |
| 0 | 0 | 7 | 0 | 0 | 0 | 0 | 0 | 0 | 0 | 0 | 3 | 71 | 0 | 11 | 13 | 0 | 19 | 0 | 4 | COCCN1CCC(CNC(=O)c2n[nH]c3ccc(OC)cc23)CC1 [Compound 2, 5-methoxy-N-{[1-(2-methoxyethyl)-piperidin-4-yl]methyl}-1H-indazole-3-carboxamide] | inhibition at 10 µM [21]: 0%; inhibition at 10 µM [22]: 4%; inhibition at 10 µM [23]: 6%; inhibition at 10 µM [24]: 1%; inhibition at 10 µM [25]: 0%; inhibition at 10 µM [26]: 1%; inhibition at 10 µM [27]: 12%; inhibition at 10 µM [28]: 0%; inhibition at 10 µM [29]: 23%; inhibition at 10 µM [30]: 26%; inhibition at 10 µM [31]: 0%; inhibition at 10 µM [32]: 0%; inhibition at 10 µM [33]: 1%; inhibition at 10 µM [34]: 6% |
| 7 | 0 | 2 | 8 | 3 | 9 | 0 | 14 | 0 | 7 | 23 | 0 | 84 | 80 | 92 | 77 | 1 | 68 | 4 | 0 | COCCN1CCC(CNC(=O)c2n[nH]c3ccc(-c4cccc(F)c4F)cc23)CC1 [Compound 8, 5-(2,3-difluorophenyl)-N-{[1-(2-methoxyethyl)piperidin-4-yl]methyl}-1H-indazole-3-carboxamide] | inhibition at 10 µM [21]: 4%; inhibition at 10 µM [22]: 0%; inhibition at 10 µM [23]: 0%; inhibition at 10 µM [24]: 4%; inhibition at 10 µM [25]: 19%; inhibition at 10 µM [26]: 28%; inhibition at 10 µM [27]: 6%; inhibition at 10 µM [28]: 3%; inhibition at 10 µM [29]: 72%; inhibition at 10 µM [30]: 79%; inhibition at 10 µM [31]: 58%; inhibition at 10 µM [32]: 3%; inhibition at 10 µM [33]: 20%; inhibition at 10 µM [34]: 0% |
